From EPA's ToxValDB 9.5 (doi:10.2903/j.efsa.2016.4374) come the findings set out here.

As usually defined, the NOAEL is the highest dose or exposure tested at which no adverse effect was seen. The term LC50 denotes the concentration that kills 50% of the test population.

Values after ≈ are worked out from the molar mass of the structure shown.

In one data set the test system is Anas platyrhynchos. The settings on record: acute; oral; unspecified; mortality.
For the next data set, the system named is Apis mellifera. The settings on record: acute, duration: 48 hours, mortality.
The next data set has as its system Bibionidae. To be noted: chronic/long-term; growth.
Another data set relates to Canidae. To be noted: subchronic; duration: 90 days; oral; Dog Other; organ weight.
Another data set deals with Cyprinus carpio. To be noted: acute; mortality.
In another data set the test system is Danio rerio. To be noted: chronic; growth.
The next data set has as its system Daphnia magna. To be noted: chronic/long-term; reproduction.
Another data set concerns Folsomia candida. To be noted: chronic/long-term; duration: 28 days; mortality.
The test system of a further data set is Hypoaspis aculeifer. To be noted: chronic/long-term; duration: 14 days; mortality.
In another data set the test system is Myriophyllum spicatum. To be noted: acute; growth.
Another data set concerns Pleurozium sp. The settings on record: acute; growth.
A further data set deals with Tagia sp. The settings on record: chronic/long-term; duration: 56 days; reproduction.
The test system of another data set is Typhlodromus pyri. As to the kind of experiment: LR50; higher = less toxic. The settings on record: not reported; mortality.

Turning to `CCOC1Oc2ccc(OS(C)(=O)=O)cc2C1(C)C` (centres undefined) [Ethofumesate], the LD50 was 3780 mg/kg-day with Anas platyrhynchos; greater than 50 µg/piece with Apis mellifera (dermal); greater than 50 µg/piece in the data set on Apis mellifera (oral, unspecified); 3780 mg/kg-day in the data set on Colinus virginianus (acute, oral, mortality); greater than 5000 mg/kg-day in the data set with Rattus norvegicus (acute, oral, mortality). Besides, the NOEC in the data set on Bibionidae was found to be 3.82 mg/L; with Danio rerio, 0.156 mg/L; in the data set on Daphnia magna it was 0.25 mg/L; in the data set on Folsomia candida, 13.3 mg/kg; with Hypoaspis aculeifer, 22.1 mg/kg; in the data set with Myriophyllum spicatum, 0.25 mg/L. The figures for the NOEC in the data set with Pleurozium sp. and in the data set on Tagia sp. were 9.68 mg/L and 12.5 mg/kg, respectively. For the same molecule, the NOAEL in the data set with Canidae stood at 250 mg/kg-day; in the data set on Rattus norvegicus (chronic, duration: 2 years, oral, F, organ weight), 101 mg/kg-day; with Rattus norvegicus (reproduction developmental, body weight), 60.9 mg/kg-day. The NOEL with Colinus virginianus (reproduction developmental) is 265 mg/kg-day. The LC50 with Cyprinus carpio is 10.9 µg/mL (≈ 38.1 µM). For the same molecule, in the data set with Typhlodromus pyri, the LR50 is greater than 1000 g/ha.
